According to patent US12357630B2, “Ceritinib formulation” (Novartis AG, priority 2014, dated 2025):
Values after ≈ are worked out from the molar mass of the structure shown.

Experiments:
Solubility in water = assay type: physicochemical; details: 25° C.
Experimental: (§1) Ceritinib is a difficult compound to formulate. […] In addition, physical characteristics of Ceritinib cause sticking and picking during tableting or encapsulation of the drug and make it poorly compressible. Furthermore, the drug is administered at a high dose of 750 mg, which would require a patient to take daily up to 5 units of 150 mg. If the dose is to be increased in a respective dosage form, the increase in drug load generally negatively affects the compressibility of a tablet. Ceritinib's sticky nature causes a high drug load to further negatively influence the manufacturing of tablets due to enhanced sticking/picking.

[1] = Permeability / Biopharmaceutics Classification System; assay type: in vitro ADME
Experimental: as §1

## Cc1cc(Nc2ncc(Cl)c(Nc3ccccc3S(=O)(=O)C(C)C)n2)c(OC(C)C)cc1C1CCNCC1 [Ceritinib, 5-chloro-N^2-(2-isopropoxy-5-methyl-4-(piperidin-4-yl)phenyl)-N^4-[2-(propane-2-sulfonyl)-phenyl]-pyrimidine-2,4-diamine]
Solubility in water
  solubility: 20 µg/mL (≈ 35.8 µM)
[1]
  permeability: low permeability
